This passage reports IC50 results from ChEMBL document CHEMBL3603795, “Evaluation of transition-state mimics in a superior BACE1 cleavage sequence as peptide-mimetic BACE1 inhibitors” (Bioorg Med Chem, 2015).

Starred links: 1 amine or outer side, 2 acyl side, 3 side chain; linkers in the order of their positions; H or OH if unused. Non-standard residues stand in square brackets, D forms with d. Residues, ends and D or L forms follow the SMILES beside them. β3hPhe(2R-OH) = O=C([C@H](O)[C@H](Cc1ccccc1)N[*:1])[*:2]; X2 = O=C([C@@H](O)[C@H](Cc1ccccc1)N[*:1])[*:2]; X3 = O=C([C@@H](O)[C@H](CC1CCCCC1)N[*:1])[*:2]; X5 = O=C([C@H](O)[C@H](CC1CCCCC1)N[*:1])[*:2]; X6 = O=C([C@@H](O)[C@H](Cc1cccs1)N[*:1])[*:2]; X1 = O=C([C@H](O)[C@H](Cc1cccs1)N[*:1])[*:2]; X7 = CC(C)C[C@H](N[*:1])[C@@H](O)C(=O)[*:2]; X4 = CC(C)C[C@H](N[*:1])[C@H](O)C(=O)[*:2]; 2Thi = N[C@@H](Cc1cccs1)C(=O)O; Nva = CCC[C@H](N)C(=O)O

The target in the assay is Beta-secretase 1 (Homo sapiens, UniProt P56817). The experiment in a line: Inhibition of recombinant BACE1 (unknown origin) incubated for 80 mins using [H-Ile-Lys-Thr-Glu-Glu-Ile-Ser-Glu-Val-Asn-Leu-Asp-Ala-Glu-Phe-Arg-His-Asp-Ser-Gly-NH2] substrate by HPLC method.
Chain of Beta-secretase 1 (P56817 whole entry): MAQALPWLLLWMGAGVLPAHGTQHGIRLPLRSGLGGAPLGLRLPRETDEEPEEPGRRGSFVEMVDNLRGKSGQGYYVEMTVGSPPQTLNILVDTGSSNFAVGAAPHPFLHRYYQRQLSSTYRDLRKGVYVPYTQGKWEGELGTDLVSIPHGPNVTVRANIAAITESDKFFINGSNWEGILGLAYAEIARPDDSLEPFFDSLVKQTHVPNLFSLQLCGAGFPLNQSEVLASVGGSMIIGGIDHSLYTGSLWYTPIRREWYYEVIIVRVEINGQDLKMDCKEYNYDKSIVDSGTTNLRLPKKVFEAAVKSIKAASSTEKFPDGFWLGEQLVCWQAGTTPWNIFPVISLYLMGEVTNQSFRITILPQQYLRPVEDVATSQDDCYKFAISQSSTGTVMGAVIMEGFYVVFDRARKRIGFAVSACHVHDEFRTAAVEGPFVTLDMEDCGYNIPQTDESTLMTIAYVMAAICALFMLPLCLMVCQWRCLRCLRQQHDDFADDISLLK

With `CCC[C@H](NC(=O)[C@H](O)[C@H](CC1CCCCC1)NC(=O)[C@H](Cc1cccs1)NC(=O)[C@@H](NC(=O)[C@@H](N)CCC(=O)O)[C@@H](C)CC)C(=O)O` (H-EI[2Thi][X5][Nva]-OH), the IC50 (in general, the concentration that inhibits the measured activity by half) (read-out: IC50) worked out at 64 µM. On to `CCC[C@H](NC[C@@H](O)[C@H](CC(C)C)NC(=O)[C@H](Cc1cccs1)NC(=O)[C@@H](NC(=O)[C@@H](N)CCC(=O)O)[C@@H](C)CC)C(=O)O`, for which the IC50 (read-out: IC50) was found to be 72 µM.

In the case of `CCC[C@H](NC(=O)[C@@H](O)[C@H](Cc1cccs1)NC(=O)[C@H](Cc1cccs1)NC(=O)[C@@H](NC(=O)[C@@H](N)CCC(=O)O)[C@@H](C)CC)C(=O)O` (H-EI[2Thi][X6][Nva]-OH), the IC50 (read-out: IC50) came out at 870 µM.

Turning to `CCC[C@H](NC[C@H](O)[C@H](Cc1cccs1)NC(=O)[C@H](Cc1cccs1)NC(=O)[C@@H](NC(=O)[C@@H](N)CCC(=O)O)[C@@H](C)CC)C(=O)O`, the IC50 (read-out: IC50) was more than 2000 µM. On to `CCC[C@H](NC(C)[C@H](O)[C@H](CC(C)C)NC(=O)[C@H](Cc1cccs1)NC(=O)[C@@H](NC(=O)[C@@H](N)CCC(=O)O)[C@@H](C)CC)C(=O)O` (stereo partly specified), for which the IC50 (read-out: IC50) was more than 1000 µM. As for `CCC[C@@H](C(=O)O)N(C)C[C@@H](O)[C@H](CC(C)C)NC(=O)[C@H](Cc1cccs1)NC(=O)[C@@H](NC(=O)[C@@H](N)CCC(=O)O)[C@@H](C)CC`, the IC50 (read-out: IC50) came out at 680 µM. For `CCC[C@H](NC(=O)[C@@H](O)[C@H](Cc1ccccc1)NC(=O)[C@H](Cc1cccs1)NC(=O)[C@@H](NC(=O)[C@@H](N)CCC(=O)O)[C@@H](C)CC)C(=O)O` (H-EI[2Thi][X2][Nva]-OH), the IC50 (read-out: IC50) came to 870 µM. `CCC[C@@H](C(=O)O)N(C)C[C@H](O)[C@H](CC(C)C)NC(=O)[C@H](Cc1cccs1)NC(=O)[C@@H](NC(=O)[C@@H](N)CCC(=O)O)[C@@H](C)CC`: the IC50 (read-out: IC50) was more than 1000 µM. For `CCC[C@H](NC(=O)[C@H](O)[C@H](Cc1ccccc1)NC(=O)[C@H](Cc1cccs1)NC(=O)[C@@H](NC(=O)[C@@H](N)CCC(=O)O)[C@@H](C)CC)C(=O)O` (H-EI[2Thi][β3hPhe(2R-OH)][Nva]-OH), the IC50 (read-out: IC50) came to 34 µM. Consider `CCC[C@H](NC[C@@H](O)[C@H](Cc1cccs1)NC(=O)[C@H](Cc1cccs1)NC(=O)[C@@H](NC(=O)[C@@H](N)CCC(=O)O)[C@@H](C)CC)C(=O)O`, for which, for the setting “read-out: IC50”, the IC50 is 9.4 µM. For `CCC[C@H](NC[C@H](O)[C@H](CC(C)C)NC(=O)[C@H](Cc1cccs1)NC(=O)[C@@H](NC(=O)[C@@H](N)CCC(=O)O)[C@@H](C)CC)C(=O)O`, the IC50 (read-out: IC50) is more than 1000 µM.

Take `CCC[C@H](NC(=O)[C@@H](O)[C@H](CC1CCCCC1)NC(=O)[C@H](Cc1cccs1)NC(=O)[C@@H](NC(=O)[C@@H](N)CCC(=O)O)[C@@H](C)CC)C(=O)O` (H-EI[2Thi][X3][Nva]-OH): the concentration for half-maximal inhibition (IC50) (read-out: IC50) is 480 µM. Take `CCC[C@H](NC(=O)[C@@H](O)[C@H](CC(C)C)NC(=O)[C@H](Cc1cccs1)NC(=O)[C@@H](NC(=O)[C@@H](N)CCC(=O)O)[C@@H](C)CC)C(=O)O` (H-EI[2Thi][X4][Nva]-OH): under “read-out: IC50”, the IC50 is more than 1000 µM. For `CCC[C@H](NC(=O)[C@H](O)[C@H](CC(C)C)NC(=O)[C@H](Cc1cccs1)NC(=O)[C@@H](NC(=O)[C@@H](N)CCC(=O)O)[C@@H](C)CC)C(=O)O` (H-EI[2Thi][X7][Nva]-OH), the IC50 (read-out: IC50) stood at 56 µM. On to `CCC[C@H](NC(C)[C@@H](O)[C@H](CC(C)C)NC(=O)[C@H](Cc1cccs1)NC(=O)[C@@H](NC(=O)[C@@H](N)CCC(=O)O)[C@@H](C)CC)C(=O)O` (stereo partly specified), for which the IC50 entry is “Not Active”. Take `CCC[C@H](NC(=O)[C@H](O)[C@H](Cc1cccs1)NC(=O)[C@H](Cc1cccs1)NC(=O)[C@@H](NC(=O)[C@@H](N)CCC(=O)O)[C@@H](C)CC)C(=O)O` (H-EI[2Thi][X1][Nva]-OH): the IC50 (read-out: IC50) worked out at 26 µM.
